Assays:
[1] = system: gingival carcinoma (Ca9-22) cells; assay: Cytotoxicity assay (MTT), Ca9-22; format: cell-based, human; conditions: for CC50: Homo sapiens, Ca9-22, tumor cell line, 48 h, MTT; for PSE2 times more potent than 5-FU: PSE2 relative to reference drug 5-FU; for times of potency compared to 5-FU, Ca9-22: cytotoxicity relative to 5-FU
Experimental: (§1) The cytotoxicity of the compounds 4a - 4j were assayed towards human tumor cell lines [gingival carcinoma (Ca9–22), oral squamous cell carcinoma (HSC-2)] and human normal oral cells [gingival fibroblasts (HGF), and periodontal ligament fibroblasts (HPLF)] as described [42, 54 – 56]. In brief, all cells were cultured in Dulbecco’s modified eagle’s medium (DMEM) supplemented with 10% fetal bovine serum (FBS). The following concentrations of the compounds in dimethylsulfoxide (DMSO) were added to the medium and incubated at 37 ° C for 48 h: 4a - 4j ([…]), melphalan (3.12, 6.25, 12.5, 25. 50, 100, 200 and […]) and 5-FU ([…]). The media that contained the same concentration of DMSO ([…], 0.03125, 0.0625, 0.125, 0.25, 0.5 or 1%) were used as controls since DMSO above 0.25% is cytotoxic. The viable cell numbers were determined by the 3-(4,5-dimethylthiazol-2-yl)-2,5-diphenyltetrazolium bromide (MTT) assay. The CC50 values were determined from dose-response curves.
(§2) Cytotoxicity’s of the compounds 4a - 4j were evaluated towards Ca9–22, HSC-2, HSC-3, and HSC-4 human oral squamous cell carcinoma cell lines as tumor cell lines and HGF, HPLF, and HPC human normal oral cells as nontumor cells (Table 1) according to the procedure in the literature [42, 54 – 56]. 5-Fluorouracil (5-FU) was used as a reference anticancer drug.

[2] = system: oral squamous cell carcinoma (HSC-2) cells; assay: Cytotoxicity assay (MTT), HSC-2; format: cell-based, human; conditions: for CC50: Homo sapiens, HSC-2, tumor cell line, 48 h, MTT; for times of potency compared to 5-FU, HSC-2: cytotoxicity relative to 5-FU
Experimental: as §1, §2

[3] = system: HSC-3 oral squamous cell carcinoma cells; assay: Cytotoxicity assay (MTT), HSC-3; format: cell-based; conditions: Homo sapiens, tumor cell line, 48 h
Experimental: as §1, §2

[4] = system: HSC-4 oral squamous cell carcinoma cells; assay: Cytotoxicity assay (MTT), HSC-4; format: cell-based; conditions: Homo sapiens, tumor cell line, 48 h
Experimental: as §1, §2

[5] = Cytotoxicity assay (MTT), HGF normal cells; format: cell-based; conditions: human, HGF gingival fibroblasts (normal oral cells), non-tumor cells
Experimental: as §1, §2

[6] = Cytotoxicity assay (MTT), HPLF normal cells; format: cell-based; conditions: human, HPLF periodontal ligament fibroblasts (normal oral cells), non-tumor cells
Experimental: as §1, §2

[7] = Cytotoxicity assay (MTT), HPC normal cells; format: cell-based; conditions: human, HPC normal oral cells, non-tumor cells
Experimental: as §1, §2

[8] = system: human oral squamous cell carcinoma cell lines (Ca9-22, HSC-2, HSC-3, HSC-4); assay: Cytotoxicity assay, all tumor cell lines (mean, TS1, PSE1); format: cell-based; conditions: mean of Ca9-22, HSC-2, HSC-3, HSC-4, read-out: Tumor cell lines CC50 mean (B)
Experimental: as §1, §2
The tumor selectivity (TS1 and TS2) of each compound was calculated as described in previously reported literature procedures and these figures are presented in Table 1. Based on the TS1 values, 4f and 4g which have 2,5 and 2,4-dimethoxy substituents had the highest TS1 values in a series with 22.4 and 22.2, respectively. On the other hand, the 3,4,5-trimethoxy substituted compound 4i (TS1: 19.6) had the […] TS1 value. […] As expected, they were in accordance with the literature findings [16 – 18]. The second calculation (TS2) considered the differences of sensitivity between the malignant (Ca9–22) and non-malignant (HGF) cells derived from the same tissue (gingiva). According to TS2 values obtained, 4i (3,4,5-trimethoxy) had the highest TS2 value of 43.
The desired properties for a lead compound are being both markedly cytotoxic and selectively toxic for tumors. PSE1 reflects general cytotoxicity and selectivity potency of the compound towards all cells used, whereas PSE2 seems more specified since it was considered for the same origin cells. When the compounds tested towards OSCC lines were considered in terms of PSE2 values of the compounds. The best poly-methoxylated compounds were 4i (with 3,4,5-trimethoxy, PSE2 = 461.5) ˃ 4f (with 2,5-dimethoxy, PSE2 = 425.1) ˃ 4g (with 2,4-dimethoxy, PSE2 = 405.4) while the best mono-methoxylated derivative was 4b (with 4-methoxy, PSE2 = 205).

[9] = Cytotoxicity assay, all non-tumor cells (mean); format: cell-based; conditions: human, normal oral cells HGF, HPLF and HPC (mean of the three), read-out: Non-tumor cell lines CC50 mean (D)
Experimental: as §1, §2

hCA I = hCA I (Homo sapiens, UniProt P00915); assay: Carbonic anhydrase enzyme assay (esterase activity), hCA I; format: biochemical; conditions: for Ki: Lineweaver-Burk plot; for IC50: esterase activity, p-nitrophenyl acetate
Sequence of hCA I (P00915 whole entry, canonical isoform): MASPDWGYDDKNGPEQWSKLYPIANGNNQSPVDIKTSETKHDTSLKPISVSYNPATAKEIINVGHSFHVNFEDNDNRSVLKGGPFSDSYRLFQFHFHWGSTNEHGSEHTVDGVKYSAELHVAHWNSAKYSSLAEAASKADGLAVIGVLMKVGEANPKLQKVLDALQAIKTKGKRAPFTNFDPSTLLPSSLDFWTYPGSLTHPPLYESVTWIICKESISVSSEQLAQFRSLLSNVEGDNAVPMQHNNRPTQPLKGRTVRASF
Excerpt: (§3) Human CA isoforms (hCAI and hCAII) were purified by the sepharose - 4B – L - tyrosine sulfanilamide affinity segregation method as reported. […] Inhibitory effects of the compounds were investigated by measuring the esterase activity according to Verpoorte et al. as described in previous studies [61 – 63].
(§4) Vmax, maximal velocity; VImax, maximal velocity of inhibitor; I, inhibitor; Ki, the inhibitor constant.

hCA II = hCA II (Homo sapiens, UniProt P00918); assay: Carbonic anhydrase enzyme assay (esterase activity), hCA II; format: biochemical; conditions: for Ki: Lineweaver-Burk plot; for IC50: esterase activity, p-nitrophenyl acetate
Excerpt: as §3, §4

SMILES | Ki (hCA I) [µM] | IC50 (hCA I) [µM] | Ki (hCA II) [µM] | IC50 (hCA II) [µM] | melting point [°C] | CC50 [1] [µM] | PSE2 times more potent than 5-FU [1] | times of potency compared to 5-FU, Ca9-22 [1] | CC50 [2] [µM] | times of potency compared to 5-FU, HSC-2 [2] | CC50 [3] [µM] | CC50 [4] [µM] | CC50 at 48 h [5] [µM] | CC50 at 48 h [6] [µM] | CC50 at 48 h [7] [µM] | CC50 [8] [µM] | CC50 at 48 h [9] [µM]
O=c1[nH]cc(F)c(=O)[nH]1 [5-FU, 5-Fluorouracil, reference compound] |  |  |  |  |  | 22 |  |  | 261 |  | 7.8 | 12.5 | 1000 | 1000 | 958 | 75.8 | 986
COc1ccccc1C1=NN(c2ccc(S(N)(=O)=O)cc2)C(c2ccc3c(c2)OCO3)C1 (stereo not shown) [4d, 4-[5-(1,3-Benzodioxol-5-yl)-3-(2-methoxyphenyl)-4,5-dihydro-1H-pyrazol-1-yl]benzenesulphonamide] | 28.5 ± 1.6 | 12.8 | 8.9 ± 1.9 | 10.7 | 183 to 185 | 13.8 |  | 1.6 | 17.1 | 15.3 | 12.4 | 14.9 | 36.9 | 39.7 | 37 | 14.6 | 37.8
COc1ccc(OC)c(C2=NN(c3ccc(S(N)(=O)=O)cc3)C(c3ccc4c(c3)OCO4)C2)c1 (stereo not shown) [4f, 4-[5-(1,3-Benzodioxol-5-yl)-3-(2,5-dimethoxyphenyl)-4,5-dihydro-1H-pyrazol-1-yl]benzenesulphonamide] | 27.8 ± 10.1 | 14 | 12.3 ± 2.8 | 16.3 | 144 to 146 | 9.7 | 2.1 | 2.3 | 15.7 | 16.6 | 11.5 | 12 | 400 | 276 | 147 | 12.2 | 274
COc1ccc(C2=NN(c3ccc(S(N)(=O)=O)cc3)C(c3ccc4c(c3)OCO4)C2)cc1 (stereo not shown) [4b, 4-[5-(1,3-Benzodioxol-5-yl)-3-(4-methoxyphenyl)-4,5-dihydro-1H-pyrazol-1-yl]benzenesulphonamide] | 31.9 ± 1.9 | 11.3 | 11.5 ± 4.6 | 16.3 | 171 to 173 | 14 |  | 1.6 | 18 | 14.5 | 16.2 | 18.2 | 400 | 400 | 98.7 | 16.6 | 300
COc1ccc(C2=NN(c3ccc(S(N)(=O)=O)cc3)C(c3ccc4c(c3)OCO4)C2)c(OC)c1 (stereo not shown) [4g, 4-[5-(1,3-Benzodioxol-5-yl)-3-(2,4-dimethoxyphenyl)-4,5-dihydro-1H-pyrazol-1-yl]benzenesulphonamide] | 12.7 ± 1.7 | 6.7 | 7.8 ± 2.2 | 11.3 | 134 to 136 | 9.9 | 2.0 | 2.2 | 13.5 | 19.3 | 9.8 | 12.7 | 400 | 234 | 131 | 11.5 | 255
NS(=O)(=O)c1ccc(N2N=C(c3ccccc3)CC2c2ccc3c(c2)OCO3)cc1 (stereo not shown) [4a, 4-[5-(1,3-Benzodioxol-5-yl)-3-phenyl-4,5-dihydro-1H-pyrazol-1 yl]benzenesulphonamide] | 59.8 ± 3 | 30.1 | 8.9 ± 2.3 | 10.7 | 196 to 198 | 17.1 |  | 1.3 | 26.1 | 10 | 20.8 | 26.1 | 56.3 | 37.6 | 63.2 | 22.5 | 52.4

Continued, in another order:

Ki (hCA I) [µM] | IC50 (hCA I) [µM] | Ki (hCA II) [µM] | IC50 (hCA II) [µM] | melting point [°C] | SMILES | CC50 [1] [µM] | PSE2 times more potent than 5-FU [1] | times of potency compared to 5-FU, Ca9-22 [1] | CC50 [2] [µM] | times of potency compared to 5-FU, HSC-2 [2] | CC50 [3] [µM] | CC50 [4] [µM] | CC50 at 48 h [5] [µM] | CC50 at 48 h [6] [µM] | CC50 at 48 h [7] [µM] | CC50 [8] [µM] | CC50 at 48 h [9] [µM]
52.5 ± 1.8 | 29.7 | 24.1 ± 7.1 | 12.5 | 212 to 214 | COc1cc(C2=NN(c3ccc(S(N)(=O)=O)cc3)C(c3ccc4c(c3)OCO4)C2)cc(OC)c1OC (stereo not shown) [4i, 4-[5-(1,3-Benzodioxol-5-yl)-3-(3,4,5-trimethoxyphenyl)-4,5-dihydro-1H-pyrazol-1-yl]benzenesulphonamide] | 9.3 | 2.2 | 2.4 | 30.9 | 8.4 | 11.3 | 6.7 | 400 | 83.7 | 371 | 14.6 | 285
49.6 ± 1.9 | 13.8 | 9.3 ± 1.6 | 14.3 | 191 to 193 | COc1cc(OC)c(C2=NN(c3ccc(S(N)(=O)=O)cc3)C(c3ccc4c(c3)OCO4)C2)cc1OC (stereo not shown) [4h, 4-[5-(1,3-Benzodioxol-5-yl)-3-(2,4,5-trimethoxyphenyl)-4,5-dihydro-1H-pyrazol-1-yl]benzenesulphonamide] | 400 |  |  | 400 |  | 21.3 | 21.8 | 400 | 400 | 400 | 211 | 400
29.8 ± 9.4 | 17.9 | 9.3 ± 1.9 | 20 | 161 to 163 | COc1cc(C2=NN(c3ccc(S(N)(=O)=O)cc3)C(c3ccc4c(c3)OCO4)C2)ccc1O (stereo not shown) [4j, 4-[5-(1,3-Benzodioxol-5-yl)-3-(4-hydroxy-3-methoxyphenyl)-4,5-dihydro-1H-pyrazol-1-yl]benzenesulphonamide] | 17 |  | 1.3 | 26.7 | 9.8 | 26.3 | 16.8 | 76.7 | 64.7 | 54.3 | 21.7 | 65.2
25.5 ± 1.6 | 10.2 | 9.3 ± 0.6 | 15.2 | 243 to 245 | COc1ccc(C2=NN(c3ccc(S(N)(=O)=O)cc3)C(c3ccc4c(c3)OCO4)C2)cc1OC (stereo not shown) [4e, 4-[5-(1,3-Benzodioxol-5-yl)-3-(3,4-dimethoxyphenyl)-4,5-dihydro-1H-pyrazol-1-yl]benzenesulphonamide] |  |  |  | 400 |  | 61 | 400 | 400 | 400 | 400 | 227 | 400

From PMC8326471, “Synthesis and biological evaluation of new pyrazolebenzene-sulphonamides as potential anticancer agents and hCA I and II inhibitors” (Turkish Journal of Chemistry, 2021)
